Laboratory results reported in US6890948B1 (Cancer Research Technology Limited, priority 2000, dated 2005).
Read-outs that look alike come from different tables or passages of the source. Marks after values point to notes of the source that are not given here.

Experiments:
[1] = system: Hamster lung fibroblast V79 cells; experiment: Cytotoxic effects of compounds of formula (I) with horseradish peroxidase (HRP), clonogenic cell survival; assay type: cell-based; details: 2 hours treatment, mean ± standard error of three experiments unless n given
Experimental: Hamster lung fibroblast V79 cells were obtained from the European Tissue Culture Collection. Cells were grown over the weekend in […] tissue culture flats as attached cells in Eagle's Modified Essential Medium (EMEM) supplemented with 10% foetal calf serum, 2 mM L-glutamine, 100 U/mL penicillin and 100 μg/mL streptomycin, and incubated in a humidified incubator at 37° C., in 5% CO2/air. […] The trypsin was deactivated by the addition of 10 mL spinner modified EMEM (supplemented with 7.5% foetal calf serum) and the cells allowed to grow in a spinning culture, pre-gassed with 5% CO2/air, maintaining the cells in logarithmic growth.
Cells were prepared for toxicity measurements by counting and plating 200, 2000 or 20,000 cells/6 cm Petri dish in 3 mL EMEM in triplicate for each sample. The cells were allowed to attach for at least 1 hour, then the medium removed and 2 mL phenol red free Hanks' balanced salt solution added, either alone (control) or with 50 or 100 μM of the compound of formula (I) to be tested. HRP (50 μL of 0.048 mg/mL) was added to the test dishes requiring it and the cells left in the incubator for 0, 0.5, 1, 1.5 or 2 hours. After the incubation time the drug was removed, the cells washed with 2 mL Hanks and then 4 mL EMEM added. The cells were allowed to grow for 7 days to colonies of >50 cells. After 7 days the medium was removed and the cells fixed with 75% methanol for 5 minutes. The methanol was then removed and the cells stained with 1% w/v crystal violet for 5 minutes. The cells were washed and colonies counted. Cell survival was determined by calculating the ratio of colonies growing compared to untreated control cells.
In table 1, values are the surviving fraction after 2 hours treatment with the IAA derivatives at the concentrations shown together with HRP (1.2 μg/mL). Unless otherwise indicated (by n=number of individual experiments), the means±the standard errors of three experiments are given.

[2] = system: Human bladder carcinoma T24 cells; experiment: GDEPT: clonogenic survival of cells transiently transfected with the HRP gene versus untransfected cells; assay type: cell-based; details: for IC50: Homo sapiens, T-24, 24 h; for factor: ratio of IC50 for transfected and untransfected cells
Experimental: (§1) Human bladder carcinoma T24 cells, MCF-7 mammary carcinoma cells (both from European Collection of Cell Cultures, Salisbury, UK), FaDu, nasopharyngeal squamous carcinoma cells (American Type Culture Collection, Manassas, Va.) were maintained in Dulbecco's modified Eagle's medium (DMEM) supplemented with 10% foetal calf serum, 2 mM L-glutamine, 100 U/ml penicillin, 100 µg/ml streptomycin, and incubated in a humidified incubator at 37° C. and 5% CO2/air. Only cells which tested negative for mycoplasma infection were utilised.
(§2) Following drug exposure, cells were rinsed with PBS and grown for 8 to 20 days in complete DMEM supplemented with feeder cells (V79 cells exposed to 250 Gy ^60Co irradiation). After fixation and staining with 2.5% crystal violet w/v in methylated spirit, colonies of >50 cells were scored. Surviving fractions were evaluated relative to HBSS-treated controls.

[3] = system: FaDu, nasopharyngeal squamous carcinoma cells; experiment: as above; assay type: cell-based, human; details: for IC50: Homo sapiens; for factor: ratio of IC50 for transfected and untransfected cells
Experimental: as §1, §2

[4] = system: MCF-7 mammary carcinoma cells; experiment: as above; assay type: cell-based, human; details: for IC50: Homo sapiens; for factor: MCF-7, ratio of IC50 for transfected and untransfected cells
Experimental: as §1, §2

[5] = Distribution of 5-fluoro-indole acetic acid in vivo in mice with the Carcinoma NT tumour; details: 50 mg/kg i.p., female CBA mice bearing Carcinoma NT tumour, up to 2 hours
Experimental: 5-fluoro-indole acetic acid (5 mg/mL) in 2% v/v ethanol/water was adjusted to pH 7.4 with NaOH and injected i.p. at a dose of 50 mg/kg into female CBA mice bearing the Carcinoma NT tumour (see example 8 for details). The mice were sacrificed up to 2 hours after drug administration and the blood and tissues removed immediately and placed on ice. The whole blood was spun down and the plasma stored at −20° C. Tissue sample were weighed and homogenised in 4 to 9 volumes of ice-cold water. The homogenised tissue was then stored at −20° C.
For HPLC analysis, plasma (50 μL) was mixed with IAA internal standard (130 μM, 25 μL) and protein precipitated with acetonitrile (50 μL). The samples were spun down and the supernatant injected directly for HPLC analysis. For tissue levels, samples (250 μL) was mixed with IAA internal standard (130 μM, 25 μL) and precipitated with acetonitrile (250 μL) for direct injection for HPLC analysis. HPLC analysis was carried out with a Hypersil SODS 125×4.6 mm column eluting with A; 75% acetonitrile and B: 20 mM ammonium acetate (pH 5.1) with a gradient of 15-70% A in 10 minutes at 2 mL/minute. Detection was at 290 nm using a Waters 486 variable wavelength detector.

[6] = 50 μM IAA derivative together with HRP (1.2 μg/mL)
[7] = 100 μM IAA derivative together with HRP (1.2 μg/mL), 0^a = all cells killed, 1^b = no detectable effect

## O=C(O)Cc1c[nH]c2c(F)cccc12 [SR022, 7-Fluoroindole-3-acetic acid]
[1]; [6]
  surviving fraction: 0.053 ± 0.022
[1]; [7]
  surviving fraction: 0^a
other
  melting point: 159 to 161 °C

## O=C(O)Cc1c[nH]c2ccc(Br)cc12 [Compound 5-bromo, 5-bromo-indole-3-acetic acid]
[1]; [7]
  surviving fraction: 0.00004 ± 0.00003
[2]; read-out: IC50 HRP+, T24 (anoxic), transfected cells, 24 hours exposure in anaerobic cabinet
  IC50: 7 µM
[2]; read-out: IC50 HRP+, T24 (normoxic), transfected cells, 24 hours exposure, estimated from survival curves
  IC50: 6 µM
[2]; read-out: IC50 HRP−, T24 (anoxic), untransfected cells, 24 hours exposure in anaerobic cabinet
  IC50: 1000 µM
[2]; read-out: IC50 HRP−, T24 (normoxic), untransfected cells, 24 hours exposure
  IC50: 600 µM
[2]; T24 (anoxic)
  factor: 43
[2]; T24 (normoxic)
  factor: 100
[3]; 24 h, read-out: IC50 HRP+
  IC50: 7 µM
[3]; 24 h, read-out: IC50 HRP−
  IC50: 600 µM
[3]
  factor: 86
[4]; MCF7, 24 h, read-out: IC50 HRP+
  IC50: 7 µM
[4]; MCF7, 24 h, read-out: IC50 HRP−
  IC50: 500 µM
[4]
  factor: 71

## Cc1cc(F)c2[nH]cc(CC(=O)O)c2c1 [SR109, 7-Fluoro-5-methylindole-3-acetic acid]
other
  melting point: 138 to 140 °C

## O=C(O)Cc1c[nH]c2ccc(Cl)cc12 [SR024, 5-Chloroindole-3-acetic acid]
[1]; [7]
  surviving fraction: 0.0027 ± 0.0022
other
  melting point: 160 to 161 °C

## O=C(O)Cc1c[nH]c2cc(Br)ccc12 [SR069, 6-Bromoindole-3-acetic acid]
[1]; [6]
  surviving fraction: 0.0031 ± 0.0023
[1]; [7]
  surviving fraction: 0^a
other
  melting point: 174 to 176 °C

## O=C(O)Cc1c[nH]c2cc(F)ccc12 [SR043, 6-Fluoroindole-3-acetic acid]
[1]; [7]
  surviving fraction: 0.00995 (n = 2)
other
  melting point: 161 to 163 °C

## Cc1[nH]c2ccc(F)cc2c1CC(=O)O [SR036, 5-Fluoro-2-methylindole-3-acetic acid]
other
  melting point: 182 to 184 °C

## O=C(O)Cc1c[nH]c2ccc(-c3ccc(Cl)cc3)cc12 [SR150, 5-(4-Chlorophenyl)indole-3-acetic acid]
other
  melting point: 166 to 168 °C

## O=C(O)Cc1c[nH]c2ccc(OC(F)(F)F)cc12 [SR073, 5-Trifluoromethoxyindole-3-acetic acid]
other
  melting point: 120 to 122 °C

## O=C(O)Cc1c[nH]c2cc(Cl)ccc12 [SR058, 6-Chloroindole-3-acetic acid]
[1]; [6]
  surviving fraction: 0.00085 (n = 1)
[1]; [7]
  surviving fraction: 0^a
other
  melting point: 183 to 185 °C

## O=C(O)Cc1c[nH]c2cc(Cl)cc(Cl)c12 [SR085, 4,6-Dichloroindole-3-acetic acid]
other
  melting point: 223 to 224 °C

## O=C(O)Cc1c[nH]c2cccc(F)c12 [SR039, 4-Fluoroindole-3-acetic acid]
[1]; [7]
  surviving fraction: 0.000085 ± 0.00007
other
  melting point: 129 to 131 °C

## Cc1ccc(F)c2[nH]cc(CC(=O)O)c12 [SR148, 7-Fluoro-4-methylindole-3-acetic acid]
other
  melting point: 162 to 164 °C (dec.)

## O=C(O)Cc1c[nH]c2ccc(F)cc12 [Compound 5-fluoro, 5-fluoro-indole-3-acetic acid]
[1]; [6]
  surviving fraction: 0.0045 ± 0.003
[1]; [7]
  surviving fraction: 0^a
[2]; T24 (anoxic), transfected cells, 24 hours exposure in anaerobic cabinet, read-out: IC50 HRP+
  IC50: 30 µM
[2]; T24 (anoxic), untransfected cells, 24 hours exposure in anaerobic cabinet, read-out: IC50 HRP−
  IC50: 2300 µM
[2]; T24 (normoxic), transfected cells, 24 hours exposure, estimated from survival curves, read-out: IC50 HRP+
  IC50: 40 µM
[2]; T24 (normoxic), untransfected cells, 24 hours exposure, read-out: IC50 HRP−
  IC50: 3500 µM
[2]; T24 (anoxic)
  factor: 77
[2]; T24 (normoxic)
  factor: 88
[3]; transfected cells, 24 hours exposure, read-out: IC50 HRP+
  IC50: 20 µM
[3]; untransfected cells, 24 hours exposure, read-out: IC50 HRP−
  IC50: 1200 µM
[3]
  factor: 60
[4]; MCF7, MCF-7, transfected cells, 24 hours exposure, read-out: IC50 HRP+
  IC50: 250 µM
[4]; MCF7, MCF-7, untransfected cells, 24 hours exposure, read-out: IC50 HRP−
  IC50: 400 µM
[4]
  factor: 1.6
[5]
  concentration in the tumour: sufficient concentrations to achieve a cytotoxic effect are attained in the tumour
  levels in the kidney: High levels in the kidney

## O=C(O)Cc1c[nH]c2c(F)cc(Cl)cc12 [SR091, 5-Chloro-7-fluoroindole-3-acetic acid]
other
  melting point: 164 to 166 °C

## Cn1cc(CC(=O)O)c2ccc(Cl)cc21 [SR139, 6-Chloro-1-methylindole-3-acetic acid]
other
  melting point: 130 to 132 °C (dec.)

## O=C(O)Cc1c[nH]c2c(Cl)cccc12 [SR052, 7-Chloroindole-3-acetic acid]
[1]; [7]
  surviving fraction: 0.000042 (n = 1)
other
  melting point: 164 to 165 °C
